From ChEMBL document CHEMBL3046544, “Inhibitory Activity of N-Substituted-2-piperidones with a 1, 4-Benzodioxan Ring on Germination of Barnyardgrass” (J Pestic Sci, 2001)

Experiments:
Type in all cases: functional
Settings in all cases: 120 h
Echinochloa esculenta [1] = assay: Herbicidal activity against Echinochloa esculenta assessed as inhibition of seed germination at 100 nM after 5 days relative to control
Echinochloa esculenta [2] = assay: Herbicidal activity against Echinochloa esculenta assessed as inhibition of seed germination at 1 nM after 5 days relative to control
Echinochloa esculenta [3] = assay: Herbicidal activity against Echinochloa esculenta assessed as inhibition of seed germination at 10 nM after 5 days relative to control
Echinochloa esculenta [4] = assay: Herbicidal activity against Echinochloa esculenta assessed as inhibition of seed germination at 1000 nM after 5 days relative to control

| Compound | inhibition at 0.1 µM (Echinochloa esculenta [1]) [%] | inhibition at 0.001 µM (Echinochloa esculenta [2]) [%] | inhibition at 0.01 µM (Echinochloa esculenta [3]) [%] | inhibition at 1 µM (Echinochloa esculenta [4]) [%] |
| --- | --- | --- | --- | --- |
| CCCCCCC(O)C1CCCN(Cc2ccccc2)C1=O (stereo unspecified) | 50 | < 49 | < 49 | > 90 |
| O=C1C(C(O)c2cccc(C(F)(F)F)c2)CCCN1Cc1ccccc1 (stereo unspecified) | 50 | < 49 | < 49 | 50 |
| O=C1C(C(O)c2ccc3c(c2)OCCO3)CCN1C/C=C/c1ccccc1 (mixture of isomers) | < 49 | < 49 | < 49 | > 90 |
| O=C1C(C(O)c2ccc3c(c2)OCCO3)CCCCN1C/C=C/c1ccccc1 (mixture of isomers) | < 49 | < 49 | < 49 | > 90 |
| O=C1C(C(O)c2ccc3c(c2)OCCO3)Cc2ccccc2N1C/C=C/c1ccccc1 (mixture of isomers) | < 49 | < 49 | < 49 | < 49 |
| COc1c(C(O)C2CCCN(Cc3ccccc3)C2=O)ccc2c1OCCO2 (mixture of isomers) | < 49 | < 49 | < 49 | > 90 |
| O=C1C(C(O)c2ccc3c(c2)OCC(COCc2ccccc2)O3)CCCN1Cc1ccccc1 (mixture of isomers) | 50 | < 49 | < 49 | > 90 |
| CCOCC1COc2cc(C(O)C3CCCN(Cc4ccccc4)C3=O)ccc2O1 (mixture of isomers) | 50 | < 49 | < 49 | 50 |
| COCC1COc2cc(C(O)C3CCCN(Cc4ccccc4)C3=O)ccc2O1 (mixture of isomers) | > 90 | < 49 | < 49 | > 90 |
| O=C1C(C(O)c2ccc3c(c2)OCC(c2ccccc2)O3)CCCN1Cc1ccccc1 (mixture of isomers) | < 49 | < 49 | < 49 | < 49 |
| O=C1C(C(O)c2ccnc3ccccc23)CCCN1Cc1ccccc1 (mixture of isomers) | < 49 | < 49 | < 49 | > 90 |
| O=C1C(C(O)c2cnc3ccccc3c2)CCCN1Cc1ccccc1 (mixture of isomers) | < 49 | < 49 | < 49 | < 49 |
| O=C1C(C(O)c2ccc3ccccc3n2)CCCN1Cc1ccccc1 (mixture of isomers) | < 49 | < 49 | < 49 | > 90 |
| O=C1C(C(O)c2ccncc2)CCCN1Cc1ccccc1 (mixture of isomers) | < 49 | < 49 | < 49 | < 49 |
| O=C1C(C(O)c2cccnc2)CCCN1Cc1ccccc1 (mixture of isomers) | < 49 | < 49 | < 49 | 50 |
| O=C1C(C(O)c2ccccn2)CCCN1Cc1ccccc1 (mixture of isomers) | < 49 | < 49 | < 49 | < 49 |
| O=C1C(C(O)c2ccc3ccccc3c2)CCCN1Cc1ccccc1 (mixture of isomers) | < 49 | < 49 | < 49 | < 49 |
| COc1cc2c(cc1C(O)C1CCCN(Cc3ccccc3)C1=O)OCCO2 (mixture of isomers) | 50 | < 49 | < 49 | 50 |
| COc1cc(C(O)C2CCCN(Cc3ccccc3)C2=O)cc2c1OCCO2 (mixture of isomers) | < 49 | < 49 | < 49 | 50 |
